EPA's ToxValDB 9.5 (doi:10.2903/j.efsa.2010.1856)
Converted amounts (≈) assume the structure as drawn.

Experiments:
Typhlodromus pyri = assay: LR50; higher = less toxic; details: not reported; mortality
Aphidius rhopalosiphi = assay: LR50; higher = less toxic; details: not reported; mortality
Rattus norvegicus = details: chronic; duration: 2 years; histopathology: nonneoplastic
Apis mellifera = details: acute; duration: 48 hours; oral; unspecified; mortality
Coturnix japonica = details: acute, oral, mortality
Phasianus sp. = details: acute; oral; unspecified; mortality
Oncorhynchus mykiss = details: mortality
Colinus virginianus = details: reproduction developmental
Anatidae = details: short-term; oral; feed; mortality
Daphnia magna = details: chronic/long-term; duration: 21 days; reproduction
Canidae = details: chronic, duration: 1 years, oral, Dog Other

CC1OC(C)OC(C)OC(C)O1 (stereo not drawn) [2,4,6,8-Tetramethyl-1,3,5,7-tetroxocane]
LR50 (Typhlodromus pyri): > 350 g/ha
LR50 (Aphidius rhopalosiphi): > 350 g/ha
NOAEL (Rattus norvegicus): 2 mg/kg-day
LC50 (Tagia sp.; acute, duration: 14 days, mortality): > 1000 mg/kg
NOEC (Tagia sp.; chronic/long-term, reproduction): 32 mg/kg
LD50 (Apis mellifera): > 87.5 µg/piece
LD50 (Anas platyrhynchos; acute, oral, unspecified, mortality): 196 mg/kg-day
NOEC (Anas platyrhynchos; reproductive): 175 mg/kg
LC50 (Coturnix japonica; diet): 3460 mg/kg
LD50 (Coturnix japonica): 170 mg/kg-day
LD50 (Phasianus sp.): 262 mg/kg-day
LC50 (Oncorhynchus mykiss; acute, duration: 96 hours): 75 µg/mL (≈ 426 µM)
NOEC (Oncorhynchus mykiss; chronic/long-term, duration: 21 days): 37.5 mg/L
NOEC (Colinus virginianus): 500 mg/kg-day
LC50 (Anatidae): 3450 mg/kg
NOEC (Daphnia magna): 90 mg/L
NOAEL (Canidae; mortality): 10 mg/kg-day
NOAEL (Canidae; neurology): 30 mg/kg-day
